These results are taken from PMC3329717 (Journal of Medicinal Chemistry, 2012).

A word on the IC50: it is the concentration that gives 50% inhibition. The half-life is the time needed for the level to fall by half in the phase considered. For orientation: Papp means the rate of passage across a membrane or cell layer, normalised by area and donor concentration. A higher Papp goes with fast passage.

Data set [1] has as its system WEEV replicon. Kind of data set: microbe, parasite or virus in culture. The following applies: Western equine encephalitis virus, BSR-T7, read-out: IC50, inhibition of luciferase expression in the WEEV replicon assay. A general note: A replicon is a self-replicating genome or part of one, used to study replication in cells.
Data set [2] has as its system WEEV replicon.
The nature of the next data set: Mouse liver microsome. Conditions: Balb-C, liver microsomes, pH 7.5. (In general: Microsomes from liver hold many membrane-bound enzymes, among them those of drug oxidation.)
The nature of data set [3]: Parallel Artificial Membrane Permeability Assay. The following applies: PAMPA. In general terms: PAMPA measures passive passage across an artificial lipid membrane.
For data set [4], the system named is NSV. Type of data set: cell-based, neuroadapted Sindbis virus.
The test system of data set [5] is WEEV. Type of data set: cell-based, western equine encephalitis virus.
The subject of data set [6] is NSV. Type of data set: cell-based, neuroadapted Sindbis virus. The source holds these as a separate data set.
The subject of data set [7] is WEEV. Type of data set: cell-based, western equine encephalitis virus. The source holds these as a separate data set.
The subject of data set [8] is NSV. Also noted: species or system mice. Conditions: mouse, in vivo.
Data set [9] concerns NSV. Also noted: species or system mice. The following applies: mouse, in vivo. The source holds these as a separate data set.
Data set [10] relates to NSV. More on the design: species or system mice. Conditions: mouse, in vivo. The source holds these as a separate data set.
The subject of another data set is wild-type VEEV. Conditions: in vivo; cited from earlier work.
Data set [11] relates to vaccine strain of Venezuelan equine encephalitis virus (VEEV). Conditions: mouse, in vivo; cited from earlier work.

Some results are limits rather than exact numbers.

On to `O=C(NCc1ccccc1)C1CCN(C(=O)c2cc3sccc3n2Cc2ccc(F)cc2)CC1` [Compound 5a, N-benzyl-1-(4-(4-fluorobenzyl)-4H-thieno[3,2-b]pyrrole-5-carbonyl)piperidine-4-carboxamide], for which the IC50 in the data set on WEEV replicon [1] was determined as 25.4 ± 7.3 µM. Further, in the data set on WEEV replicon [2], the “CC50/IC50 (therapeutic index)” value is recorded as greater than 3.9.

The compound `O=C(NCc1ccccc1)C1CCN(C(=O)c2cc3sccc3n2Cc2ccc(Cl)cc2)CC1` [Compound 5b, N-benzyl-1-(4-(4-chlorobenzyl)-4H-thieno[3,2-b]pyrrole-5-carbonyl)piperidine-4-carboxamide] yielded a half-life at 1 µM in “Mouse liver microsome” of 1.7 ± 1.7 min. In addition, in data set [3], the Papp is 251 ×10⁻⁶ cm/s. Moreover, the IC50 in the data set with WEEV replicon [1] turned out to be 10.1 ± 2.6 µM. The “CC50/IC50 (therapeutic index)” value with WEEV replicon [2] is greater than 9.9. Further, the “NSV titers (virion production, plaque assay)” value (“NSV titers” below) in the data set with NSV [4] is reported as “significantly reduced”. Also, in the data set with WEEV [5], the “WEEV titers (virion production, plaque assay)” value (shortened to “WEEV titers”) was “significantly reduced”.

On to `C[C@H](NC(=O)C1CCN(C(=O)c2cc3sccc3n2Cc2ccc(F)cc2)CC1)c1ccccc1` [Compound 5c, (S)-1-(4-(4-fluorobenzyl)-4H-thieno[3,2-b]pyrrole-5-carbonyl)-N-(1-phenylethyl)piperidine-4-carboxamide], for which the IC50 in the data set with WEEV replicon [1] was greater than 100 µM.

As for `C[C@@H](NC(=O)C1CCN(C(=O)c2cc3sccc3n2Cc2ccc(F)cc2)CC1)c1ccccc1` [Compound 5d, (R)-1-(4-(4-fluorobenzyl)-4H-thieno[3,2-b]pyrrole-5-carbonyl)-N-(1-phenylethyl)piperidine-4-carboxamide], in the data set on WEEV replicon [1], the IC50 turned out to be 8.3 ± 1.3 µM. Besides, the “CC50/IC50 (therapeutic index)” value in the data set on WEEV replicon [2] came out at 11.

`C[C@H](c1ccc(F)cc1)n1c(C(=O)N2CCC(C(=O)NCc3ccccc3)CC2)cc2sccc21` [Compound 5e, (R)-N-benzyl-1-(4-(1-(4-fluorophenyl)ethyl)-4H-thieno[3,2-b]pyrrole-5-carbonyl)piperidine-4-carboxamide]: in the data set on WEEV replicon [1], the IC50 was 18.4 ± 4.7 µM. In the data set with WEEV replicon [2], the “CC50/IC50 (therapeutic index)” value was greater than 5.4.

In the case of `C[C@@H](c1ccc(F)cc1)n1c(C(=O)N2CCC(C(=O)NCc3ccccc3)CC2)cc2sccc21` [Compound 5f, (S)-N-benzyl-1-(4-(1-(4-fluorophenyl)ethyl)-4H-thieno[3,2-b]pyrrole-5-carbonyl)piperidine-4-carboxamide], the IC50 in the data set on WEEV replicon [1] was greater than 100 µM.

Consider `O=C(NCc1ccccc1)C1CCN(C(=O)c2cc3ccccc3n2Cc2ccc(F)cc2)CC1` [Compound 9a, N-benzyl-1-(1-(4-fluorobenzyl)-1H-indole-2-carbonyl)piperidine-4-carboxamide], for which the IC50 in the data set on WEEV replicon [1] stood at 14.8 ± 5.8 µM. Also, the “CC50/IC50 (therapeutic index)” value with WEEV replicon [2] is reported as greater than 6.7.

As for `O=C(NCc1ccccc1)C1CCN(C(=O)c2cc3ccccc3n2Cc2ccc(Cl)cc2)CC1` [Compound 9b, N-benzyl-1-(1-(4-chlorobenzyl)-1H-indole-2-carbonyl)piperidine-4-carboxamide], the half-life at 1 µM in “Mouse liver microsome” came out at 7.3 ± 3.9 min. Further, the IC50 in the data set with WEEV replicon [1] was 15.5 ± 5.6 µM. For the same compound, the “CC50/IC50 (therapeutic index)” value with WEEV replicon [2] was greater than 6.5. For the same compound, in the data set on NSV [4], the “NSV titers” value is on record as “significantly reduced”. Further, the “WEEV titers” value with WEEV [5] was “significantly reduced”.

Turning to `O=C(NCc1ccccc1)C1CCCN(C(=O)c2cc3ccccc3n2Cc2ccc(Cl)cc2)C1` (stereo not drawn) [Compound 9c, N-benzyl-1-(1-(4-chlorobenzyl)-1H-indole-2-carbonyl)piperidine-3-carboxamide], in the data set on WEEV replicon [1], the IC50 amounted to 30.6 ± 7.3 µM. The “CC50/IC50 (therapeutic index)” value with WEEV replicon [2] was greater than 3.3.

With `O=C(Nc1ccccc1)C1CCN(C(=O)c2cc3ccccc3n2Cc2ccc(Cl)cc2)CC1` [Compound 9d, 1-(1-(4-chlorobenzyl)-1H-indole-2-carbonyl)-N-phenylpiperidine-4-carboxamide], the IC50 in the data set on WEEV replicon [1] is greater than 50 µM.

For `O=C(NCCc1ccccc1)C1CCN(C(=O)c2cc3ccccc3n2Cc2ccc(Cl)cc2)CC1` [Compound 9e, 1-(1-(4-chlorobenzyl)-1H-indole-2-carbonyl)-N-phenethylpiperidine-4-carboxamide], the IC50 in the data set with WEEV replicon [1] is 15.2 ± 9.3 µM. Also, the “CC50/IC50 (therapeutic index)” value in the data set on WEEV replicon [2] worked out at 4.1.

On to `Cc1ccc(CCNC(=O)C2CCN(C(=O)c3cc4ccccc4n3Cc3ccc(Cl)cc3)CC2)cc1` [Compound 9f, 1-(1-(4-chlorobenzyl)-1H-indole-2-carbonyl)-N-(4-methylphenethyl)piperidine-4-carboxamide], for which the IC50 in the data set on WEEV replicon [1] came out at 5.5 ± 2.2 µM. Moreover, in the data set on WEEV replicon [2], the “CC50/IC50 (therapeutic index)” value was determined as 14.

Consider `C[C@H](NC(=O)C1CCN(C(=O)c2cc3ccccc3n2Cc2ccc(Cl)cc2)CC1)c1ccccc1` [Compound 9g, (S)-1-(1-(4-chlorobenzyl)-1H-indole-2-carbonyl)-N-(1-phenylethyl)piperidine-4-carboxamide], for which, in the data set with WEEV replicon [1], the IC50 is greater than 100 µM. In addition, in the data set with NSV [6], the “Increase in cell viability after NSV infection (reduction in CPE)” value was “unable to rescue virus-induced CPE”. The “NSV titers” value in the data set with NSV [4] was “inactive”. The “WEEV titers” value in the data set on WEEV [5] is “inactive”. In addition, the “Increase in cell viability after WEEV infection (reduction in CPE)” value in the data set on WEEV [7] was “unable to rescue virus-induced CPE”.

On to `C[C@@H](NC(=O)C1CCN(C(=O)c2cc3ccccc3n2Cc2ccc(Cl)cc2)CC1)c1ccccc1` [Compound 9h, (R)-1-(1-(4-chlorobenzyl)-1H-indole-2-carbonyl)-N-(1-phenylethyl)piperidine-4-carboxamide], for which, in the data set “Mouse liver microsome”, the half-life at 1 µM was 31 ± 7.1 min. The half-inhibitory concentration (IC50) in the data set on WEEV replicon [1] was determined as 6.5 ± 1.5 µM. The “CC50/IC50 (therapeutic index)” value with WEEV replicon [2] was 14. Also, in the data set with NSV [8], the “Viral titers in brain” value was “viral titers were lower” and the “Viral titers in spinal cord” value is recorded as “A similar extent of viral inhibition was also observed”. For the same compound, in the data set on NSV [9], the “Development of severe hind limb paralysis” value is “conferred benefit against the development of severe hind limb paralysis”; the “Pilot survival assays, dose comparison” value is recorded as “the higher concentration was more effective”; the “Survival after lethal NSV infection” value is listed as “significantly protected from lethal NSV infection”. Further, the “NSV titers” value in the data set on NSV [4] is “significantly reduced”. Further, the “WEEV titers” value in the data set with WEEV [5] was “significantly reduced”. In addition, the “Neuronal injury in hippocampus (proportion of fluorojade-positive neurons)” value in the data set on NSV [10] is given as “reduced neuronal injury”.

Turning to `COc1ccc(CNC(=O)C2CCN(C(=O)c3cc4ccccc4n3Cc3ccc(Cl)cc3)CC2)cc1` [Compound 9i, 1-(1-(4-chlorobenzyl)-1H-indole-2-carbonyl)-N-(4-methoxybenzyl)piperidine-4-carboxamide], the IC50 in the data set with WEEV replicon [1] is greater than 50 µM.

As to `O=C(NCc1cccc(Cl)c1)C1CCN(C(=O)c2cc3ccccc3n2Cc2ccc(Cl)cc2)CC1` [Compound 9j, N-(3-chlorobenzyl)-1-(1-(4-chlorobenzyl)-1H-indole-2-carbonyl)piperidine-4-carboxamide], in the data set with WEEV replicon [1], the IC50 turned out to be 15.3 ± 9 µM. Moreover, the “CC50/IC50 (therapeutic index)” value with WEEV replicon [2] was greater than 6.5.

On to `O=C(c1cc2ccccc2n1Cc1ccc(Cl)cc1)N1CCC(C(=O)N2CCCCC2)CC1` [Compound 9k, (1-(4-chlorobenzyl)-1H-indol-2-yl)(4-(piperidine-1-carbonyl)piperidin-1-yl)methanone], for which, in the data set with WEEV replicon [1], the IC50 worked out at 9.2 ± 2.8 µM. In the data set with WEEV replicon [2], the “CC50/IC50 (therapeutic index)” value was 5.6.

As to `O=C(NCc1ccncc1)C1CCN(C(=O)c2cc3ccccc3n2Cc2ccc(Cl)cc2)CC1` [Compound 9l, 1-(1-(4-chlorobenzyl)-1H-indole-2-carbonyl)-N-(pyridin-4-ylmethyl)piperidine-4-carboxamide], in the data set with WEEV replicon [1], the IC50 turned out to be 6.8 ± 1.7 µM. Moreover, the “CC50/IC50 (therapeutic index)” value in the data set on WEEV replicon [2] is given as greater than 14.

Take `O=C(NCc1cccnc1)C1CCN(C(=O)c2cc3ccccc3n2Cc2ccc(Cl)cc2)CC1` [Compound 9m, 1-(1-(4-chlorobenzyl)-1H-indole-2-carbonyl)-N-(pyridin-3-ylmethyl)piperidine-4-carboxamide]: the IC50 in the data set with WEEV replicon [1] is 11.4 ± 0.4 µM. In the data set on WEEV replicon [2], the “CC50/IC50 (therapeutic index)” value is recorded as greater than 8.7.

Consider `NC(=O)c1ncn([C@@H]2O[C@H](CO)[C@@H](O)[C@H]2O)n1` [Ribavirin, reference compound], for which the IC50 in the data set on WEEV replicon [1] amounted to 16 µM.

(−)-carbodine: in the data set with wild-type VEEV, the “Benefit after wild-type VEEV challenge” value was “no benefit”. For the same compound, in data set [11], the Disease outcome is recorded as “improved outcome” and the “Lowering of peak CNS viral titers” value is “half-log”.
